Experimental data taken from ChEMBL document CHEMBL1148899, “Activity of macrocyclic jatrophane diterpenes from Euphorbia kansui in a TrkA fibroblast survival assay” (2004).
In brackets after ≈: the same amount, converted by molar mass.

Assays:
NIH3T3 [1] = experiment: Survival effect on NGF-dependent mouse NIH/3T3 cells expressing TrkB assessed as cell viability after 2 days by MTT assay; type: functional; settings: NIH3T3, 48 h, read-out: ED50 (the source's name)
NIH3T3 [2] = experiment: Survival effect on NGF-dependent mouse NIH/3T3 cells expressing TrkA assessed as cell viability after 2 days by MTT assay; type: functional; settings: NIH3T3, 48 h, read-out: ED50 (the source's name)

Row | Structure (SMILES) | EC50 (NIH3T3 [1]) | EC50 (NIH3T3 [2])
1 | C=C1[C@H](OC(C)=O)[C@@H](OC(=O)c2ccccc2)[C@@H](OC(C)=O)C(C)(C)[C@H]2O[C@](O)([C@H](C)C2=O)[C@@]2(OC(C)=O)C[C@H](C)[C@H](OC(C)=O)[C@@H]2[C@H]1OC(C)=O [KANSUININ A] | 3.28 µg/mL (≈ 4.49 µM) | 7.92 µg/mL (≈ 10.8 µM)
2 | C=C1[C@H](OC(C)=O)[C@@H](OC(=O)c2ccccc2)[C@@H](OC(=O)c2cccnc2)C(C)(C)[C@H]2O[C@](O)([C@H](C)C2=O)[C@@]2(OC(C)=O)C[C@H](C)[C@H](OC(C)=O)[C@@H]2[C@H]1OC(C)=O [KANSUININ D] | 0.22 µg/mL (≈ 0.277 µM) | 0.55 µg/mL (≈ 0.693 µM)
3 | C=C1[C@H](OC(C)=O)[C@@H](OC(=O)c2ccccc2)[C@@H](OC(=O)c2cccnc2)C(C)(C)[C@H]2O[C@@H]2[C@@H](C)C(=O)[C@@]2(OC(C)=O)C[C@H](C)[C@H](OC(C)=O)[C@@H]2[C@H]1OC(C)=O [KANSUININ E] | > 50 µg/mL | 0.23 µg/mL (≈ 0.296 µM)
4 | C=C1[C@H](OC(C)=O)[C@@H](OC(=O)c2ccccc2)[C@@H](OC(=O)c2ccccc2)C(C)(C)[C@H]2O[C@@H]2[C@@H](C)C(=O)[C@@]2(OC(C)=O)C[C@H](C)[C@H](OC(C)=O)[C@@H]2[C@H]1OC(C)=O [KANSUININ F] | > 50 µg/mL | > 50 µg/mL
